Data: the NIST ThermoML archive (doi:10.1016/j.jct.2015.09.005)
± gives the expanded uncertainty stated by the source.

Conditions: Liquid, Gas chromatography

Row | SMILES | vapor or sublimation pressure (298.15 K) | vapor or sublimation pressure (308.15 K) | vapor or sublimation pressure (318.15 K) | vapor or sublimation pressure (328.15 K) | vapor or sublimation pressure (338.15 K) | vapor or sublimation pressure (348.15 K) | vapor or sublimation pressure (350 K)
1 | CC1=COC(=O)[C@@H]2[C@@H]1CC[C@@H]2C | 0.0012 ± 0.0001 kPa | 0.0029 ± 0.0003 kPa | 0.0066 ± 0.0007 kPa | 0.014 ± 0.002 kPa | 0.029 ± 0.003 kPa | 0.056 ± 0.006 kPa | 0.064 ± 0.006 kPa
2 | CC1=COC(=O)[C@H]2[C@@H]1CC[C@@H]2C | 0.00092 ± 9e-05 kPa | 0.0022 ± 0.0002 kPa | 0.005 ± 0.0005 kPa | 0.011 ± 0.001 kPa | 0.022 ± 0.002 kPa | 0.045 ± 0.005 kPa | 0.05 ± 0.005 kPa
